Results taken from the NIST ThermoML archive (doi:10.1021/je025657+).
Values joined by “and” are separate entries in the source; they are usually repeats but may differ in a detail not shown here. Equal entries are not always repeated.

COC(F)(F)F [trifluoromethoxymethane]
Settings	mass density [kg/m3]
240 K, 17 kPa, Gas	0.84
240 K, 25.1 kPa, Gas	1.25
240 K, 36.9 kPa, Gas	1.87
240 K, 517.1 kPa, Liquid	1262.64
240 K, 1011 kPa, Liquid	1263.83
240 K, 1516.2 kPa, Liquid	1265.03
240 K, 2014.7 kPa, Liquid	1266.21
240 K, 2517.3 kPa, Liquid	1267.38
240 K, 3024.1 kPa, Liquid	1268.56
240 K, 3529.6 kPa, Liquid	1269.72
240 K, 4031 kPa, Liquid	1270.86
240 K, 4515.5 kPa, Liquid	1271.95
240 K, 5038.9 kPa, Liquid	1273.12
240 K, 5511.8 kPa, Liquid	1274.16
240 K, 6024.7 kPa, Liquid	1275.29
240 K, 6511.7 kPa, Liquid	1276.35
240 K, 6981.1 kPa, Liquid	1277.36
250 K, 19.2 kPa, Gas	0.91
250 K, 28.3 kPa, Gas	1.34
250 K, 41.7 kPa, Gas	1.98
250 K, 61.2 kPa, Gas	2.94
250 K, 89.4 kPa, Gas	4.33
250 K, 505.1 kPa, Liquid	1236.18
250 K, 1008.8 kPa, Liquid	1237.55
250 K, 1508.8 kPa, Liquid	1238.91
250 K, 2020.1 kPa, Liquid	1240.28
250 K, 2517.2 kPa, Liquid	1241.59
250 K, 3037 kPa, Liquid	1242.95
250 K, 3530.8 kPa, Liquid	1244.22
250 K, 4030.5 kPa, Liquid	1245.49
250 K, 4537.2 kPa, Liquid	1246.78
250 K, 5042.6 kPa, Liquid	1248.05
250 K, 5550.6 kPa, Liquid	1249.31
250 K, 6026.5 kPa, Liquid	1250.48
250 K, 6529.6 kPa, Liquid	1251.71
250 K, 6975.1 kPa, Liquid	1252.79
260 K, 18.7 kPa, Gas	1.11
260 K, 27.6 kPa, Gas	1.53
260 K, 40.7 kPa, Gas	2.15
260 K, 59.9 kPa, Gas	3.03
260 K, 87.8 kPa, Gas	4.4
260 K, 127.7 kPa, Gas	6.4
260 K, 507.8 kPa, Liquid	1209.12
260 K, 1009.3 kPa, Liquid	1210.7
260 K, 1499.4 kPa, Liquid	1212.21
260 K, 2004.5 kPa, Liquid	1213.76
260 K, 2515.8 kPa, Liquid	1215.3
260 K, 3012.1 kPa, Liquid	1216.77
260 K, 3527.2 kPa, Liquid	1218.29
260 K, 4018 kPa, Liquid	1219.71
260 K, 4522 kPa, Liquid	1221.16
260 K, 5039.1 kPa, Liquid	1222.63
260 K, 5512.3 kPa, Liquid	1223.96
260 K, 6040.8 kPa, Liquid	1225.42
260 K, 6546.9 kPa, Liquid	1226.81
260 K, 6987.4 kPa, Liquid	1227.99
270 K, 23.7 kPa, Gas	1.1
270 K, 35 kPa, Gas	1.6
270 K, 51.5 kPa, Gas	2.35
270 K, 75.7 kPa, Gas	3.49
270 K, 110.6 kPa, Gas	5.15
270 K, 160.6 kPa, Gas	7.63
270 K, 500.8 kPa, Liquid	1180.45
270 K, 1001.8 kPa, Liquid	1182.27
270 K, 1515.4 kPa, Liquid	1184.1
270 K, 1999.2 kPa, Liquid	1185.81
270 K, 2500.7 kPa, Liquid	1187.53
270 K, 3017 kPa, Liquid	1189.29
270 K, 3484.3 kPa, Liquid	1190.86
270 K, 4038.2 kPa, Liquid	1192.68
270 K, 4513.3 kPa, Liquid	1194.24
270 K, 5047.2 kPa, Liquid	1195.96
270 K, 5542.1 kPa, Liquid	1197.53
270 K, 6036.1 kPa, Liquid	1199.08
270 K, 6529.6 kPa, Liquid	1200.61
270 K, 6973.6 kPa, Liquid	1201.96
280 K, 27.5 kPa, Gas	1.21
280 K, 40.5 kPa, Gas	1.79
280 K, 59.6 kPa, Gas	2.61
280 K, 87.6 kPa, Gas	3.89
280 K, 128.3 kPa, Gas	5.75
280 K, 186.4 kPa, Gas	8.53
280 K, 269 kPa, Gas	12.52
280 K, 454.4 kPa, Liquid	1150.61
280 K, 985.2 kPa, Liquid	1152.87
280 K, 1507.7 kPa, Liquid	1155.03
280 K, 1992.9 kPa, Liquid	1157.02
280 K, 2510.8 kPa, Liquid	1159.1
280 K, 3011.5 kPa, Liquid	1161.06
280 K, 3522.2 kPa, Liquid	1163.04
280 K, 4037.2 kPa, Liquid	1164.99
280 K, 4483.8 kPa, Liquid	1166.68
280 K, 4942.1 kPa, Liquid	1168.36
280 K, 5533.2 kPa, Liquid	1170.51
280 K, 5977.4 kPa, Liquid	1172.09
280 K, 6516.6 kPa, Liquid	1173.99
280 K, 7008.7 kPa, Liquid	1175.7
290 K, 18.9 kPa, Gas	0.76
290 K, 30.4 kPa, Gas	1.28
290 K, 50.3 kPa, Gas	2.25
290 K, 74.2 kPa, Gas	3.26
290 K, 109 kPa, Gas	4.83
290 K, 159.4 kPa, Gas	7.09
290 K, 232.8 kPa, Gas	10.52
290 K, 338.9 kPa, Gas	15.78
290 K, 493.5 kPa, Liquid	1119.5
290 K, 976.7 kPa, Liquid	1121.93
290 K, 979.3 kPa, Liquid	1121.87
290 K, 1475.8 kPa, Liquid	1124.36
290 K, 1999.9 kPa, Liquid	1126.86
290 K, 2466.6 kPa, Liquid	1129.04
290 K, 2989.9 kPa, Liquid	1131.43
290 K, 3492.2 kPa, Liquid	1133.73

Liquid
Settings	mass density
240 K	1261.55 kg/m3 and 1261.54 kg/m3
250 K	1235.07 kg/m3
260 K	1208.02 kg/m3
270 K	1179.44 kg/m3
280 K	1150.07 kg/m3
